Data taken from the supplement of paper PMC8882468.

How the values were obtained:
HCI-010 = organoid from a breast cancer xenograft; assay: CTG-3D luminescence at 96 h relative to day-0 seeding control (ratio to day 0); higher = more growth / less cytotoxicity
Procedure: (§1)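 PDxO 3D drug screen (set 2), 8-point dose, 96 h; CTG-3D luminescence normalised to day-0 seeding control (mean of 4 wells each).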

HCI-011.E2 = organoid from an ER-positive breast cancer xenograft; assay: as above
Procedure: as §1

CC/C(=C(\c1ccc(O)cc1)c1ccc(OCCN(C)C)cc1)c1ccccc1 [4-hydroxytamoxifen]
CTG-3D luminescence at 96 h
Conditions	12.5 pM	0.00025 µM	0.005 µM	0.1 µM	1 µM	10 µM	100 µM	625 fM
HCI-010, days in culture: 79	2.04	1.84	1.96	1.93	1.9	1.48	0.00321	2.05
HCI-010, days in culture: 86	1.97	2.48	2.21	2.15	2.19	1.35	0.0109	2.16
HCI-010, days in culture: 102	1.1	1.13	1.07	1.2	1.23	0.95	0.00505	0.88
HCI-010, days in culture: 164	1.4	1.46	1.45	1.45	1.38	0.899	0.00677	1.23
HCI-011.E2, days in culture: 74	2.1	1.95	2.01	2.04	1.63	1.31	-0.00194	2.23

HCI-011.E2
Conditions	CTG-3D luminescence at 96 h
12.5 pM	1.35
0.00025 µM	1.71
0.005 µM	1.2
0.1 µM	1.83
1 µM	1.35
10 µM	1.72
100 µM	0.0138
625 fM	1.77
